Test results taken from publication PMC9396064, “The enzyme pseudooxynicotine amine oxidase from Pseudomonas putida S16 is not an oxidase, but a dehydrogenase” (The Journal of Biological Chemistry, 2022).

Molecular target: T1, Pnao (pseudooxynicotine amine oxidase) (Pseudomonas putida, UniProt F8G0P1)
T1 construct: signal peptide removed (from Ala45 onward); N-terminal His-SUMO tag cleaved with ULP1; pET28a, E. coli BL21 (DE3); FAD-containing homodimer
Test: X-ray crystal structure, […] Å
Format: binding
Settings: crystals pH 9; oxidized FAD at the active site

T1 sequence (F8G0P1 45-496): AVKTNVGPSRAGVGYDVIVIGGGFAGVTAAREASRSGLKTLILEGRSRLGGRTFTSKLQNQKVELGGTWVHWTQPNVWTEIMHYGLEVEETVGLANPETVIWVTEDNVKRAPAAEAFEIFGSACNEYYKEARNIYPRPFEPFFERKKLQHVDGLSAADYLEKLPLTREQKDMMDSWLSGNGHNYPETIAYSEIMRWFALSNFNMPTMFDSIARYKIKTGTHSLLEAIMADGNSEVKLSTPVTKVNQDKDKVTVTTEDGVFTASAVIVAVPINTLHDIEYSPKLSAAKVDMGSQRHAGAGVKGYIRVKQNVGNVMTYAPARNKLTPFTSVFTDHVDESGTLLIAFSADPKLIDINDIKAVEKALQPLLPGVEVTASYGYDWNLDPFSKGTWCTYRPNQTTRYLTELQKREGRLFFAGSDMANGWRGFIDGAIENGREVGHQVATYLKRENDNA

Cc1cc2nc3c(=O)[nH]c(=O)nc-3n(C[C@H](O)[C@H](O)[C@H](O)COP(=O)(O)OP(=O)(O)OC[C@H]3O[C@@H](n4cnc5c(N)ncnc54)[C@H](O)[C@@H]3O)c2cc1C [flavin adenine dinucleotide]
X-ray crystal structure, 2.60 Å: Our structure of Pnao contained oxidized FAD
